From patent US9175003B2, “Substituted azoanthracene derivatives and intermediates for preparation thereof” (TransTech Pharma, LLC, priority 2009, dated 2015)

Target: human GLP-1 receptor (Homo sapiens (Human), UniProt P43220)
Conditions: read-out: Mean EC50; cAMP, HTRF detection, 30 min at 37° C., HEK-293 cells expressing cloned human GLP-1 receptor
Description: Following overnight incubation of cells, media was removed, and compounds (at concentrations ranging from 0.0001 to 100 μM) were added to monolayer cells in Iscove's modified dulbecco's medium (IMDM), 100 μM RO 20-1724 PDE inhibitor, 0.1% BSA, 2% DMSO in a final volume of 100 μL, and incubated for 30 min at 37° C. […] Alternatively, cells were harvested and combined with compounds in suspension using the buffer and protocol described above. cAMP was quantified using a homogenous time-resolved fluorescence detection system (cAMP dynamic, CIS bio International).

Chain of human GLP-1 receptor (P43220 24-463): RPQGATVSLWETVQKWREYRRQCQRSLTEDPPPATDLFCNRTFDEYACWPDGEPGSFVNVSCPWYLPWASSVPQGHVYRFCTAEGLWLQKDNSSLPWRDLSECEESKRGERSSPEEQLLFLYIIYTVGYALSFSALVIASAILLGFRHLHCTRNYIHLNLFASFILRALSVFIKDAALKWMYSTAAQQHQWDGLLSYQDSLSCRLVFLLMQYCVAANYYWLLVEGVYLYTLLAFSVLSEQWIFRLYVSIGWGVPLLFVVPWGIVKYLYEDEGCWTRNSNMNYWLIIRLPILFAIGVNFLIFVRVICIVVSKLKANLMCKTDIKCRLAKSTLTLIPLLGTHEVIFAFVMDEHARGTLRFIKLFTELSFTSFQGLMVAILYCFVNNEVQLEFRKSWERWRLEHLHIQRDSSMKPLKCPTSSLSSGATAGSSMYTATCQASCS

SMILES | EC50 [nM]
Cc1ccc(NC(=O)N2Cc3cc4c(cc3C[C@H]2C(=O)N[C@@H](Cc2ccc(-c3ccnc(C)c3C)cc2)C(=O)O)OC[C@H](c2ccc(OCc3ccc(Cl)c(Cl)c3)cc2)O4)cc1 [Example 243, (S)-2-({(3S,8S)-3-[4-(3,4-Dichloro-benzyloxy)-phenyl]-7-p-tolylcarbamoyl-2,3,6,7,8,9-hexahydro-[1,4]dioxino[2,3-g]isoquinoline-8-carbonyl}-amino)-3-[4-(2,3-dimethyl-pyridin-4-yl)-phenyl]-propionic acid] | 92
Cc1nccc(-c2ccc(C[C@H](NC(=O)[C@@H]3Cc4cc5c(cc4CN3C(=O)[C@H]3CCN(C(=O)OC(C)(C)C)C3)O[C@@H](c3ccc(OCc4ccc(Cl)c(Cl)c4)cc3)CO5)C(=O)O)cc2)c1C [Example 280, (S)-3-{(3S,8S)-8-{(S)-1-Carboxy-2-[4-(2,3-dimethyl-pyridin-4-yl)-phenyl]-ethylcarbamoyl}-3-[4-(3,4-dichloro-benzyloxy)-phenyl]-2,3,8,9-tetrahydro-6H-[1,4]dioxino[2,3-g]isoquinoline-7-carbonyl}-pyrrolidine-1-carboxylic acid tert-butyl ester] | 165
Cc1nccc(Oc2ccc(C[C@H](NC(=O)[C@@H]3Cc4cc5c(cc4CN3C(=O)NC(C)C)O[C@@H](c3ccc(OCc4ccc(Cl)c(Cl)c4)cc3)CO5)C(=O)O)cc2)c1C [Example 342, (S)-2-({(3S,8S)-3-[4-(3,4-Dichloro-benzyloxy)-phenyl]-7-isopropylcarbamoyl-2,3,6,7,8,9-hexahydro-[1,4]dioxino[2,3-g]isoquinoline-8-carbonyl}-amino)-3-[4-(2,3-dimethyl-pyridin-4-yloxy)-phenyl]-propionic acid] | 204
CC[C@@H](c1ccccc1)N1Cc2cc3c(cc2C[C@H]1C(=O)N[C@@H](Cc1ccc(-c2ccnc(N)c2)cc1)C(=O)O)OC[C@H](c1ccc(OCc2ccc(Cl)c(Cl)c2)cc1)O3 [Example 208, (S)-3-[4-(2-Amino-pyridin-4-yl)-phenyl]-2-{[(3S,8S)-3-[4-(3,4-dichloro-benzyloxy)-phenyl]-7-((S)-1-phenyl-propyl)-2,3,6,7,8,9-hexahydro-[1,4]dioxino[2,3-g]isoquinoline-8-carbonyl]-amino}-propionic acid] | 72
Cc1nc(C)c(C(=O)N2Cc3cc4c(cc3C[C@H]2C(=O)N[C@@H](Cc2ccc(Oc3ccnc(C)c3C)cc2)C(=O)O)OC[C@H](c2ccc(OCc3ccc(Cl)c(Cl)c3)cc2)O4)o1 [Example 265, (S)-2-{[(3S,8S)-3-[4-(3,4-Dichloro-benzyloxy)-phenyl]-7-(2,4-dimethyl-oxazole-5-carbonyl)-2,3,6,7,8,9-hexahydro-[1,4]dioxino[2,3-g]isoquinoline-8-carbonyl]-amino}-3-[4-(2,3-dimethyl-pyridin-4-yloxy)-phenyl]-propionic acid] | 95
Cc1nccc(-c2ccc(C[C@H](NC(=O)[C@@H]3Cc4cc5c(cc4CN3C(=O)NC(C)(C)c3ccccc3)O[C@@H](c3ccc(OCc4ccc(Cl)c(Cl)c4)cc3)CO5)C(=O)O)cc2)c1C [Example 323, (S)-2-{[(3S,8S)-3-[4-(3,4-Dichloro-benzyloxy)-phenyl]-7-(1-methyl-1-phenyl-ethylcarbamoyl)-2,3,6,7,8,9-hexahydro-[1,4]dioxino[2,3-g]isoquinoline-8-carbonyl]-amino}-3-[4-(2,3-dimethyl-pyridin-4-yl)-phenyl]-propionic acid] | 178
CC[C@@H](c1ccccc1)N1Cc2cc3c(cc2C[C@H]1C(=O)N[C@@H](Cc1ccc(-c2ccnc4c2CCC4)cc1)C(=O)O)OC[C@H](c1ccc(OCc2ccc(Cl)c(Cl)c2)cc1)O3 [Example 182, (S)-2-{[(3S,8S)-3-[4-(3,4-Dichloro-benzyloxy)-phenyl]-7-((S)-1-phenyl-propyl)-2,3,6,7,8,9-hexahydro-[1,4]dioxino[2,3-g]isoquinoline-8-carbonyl]-amino}-3-[4-(6,7-dihydro-5H-[1]pyrindin-4-yl)-phenyl]-propionic acid] | 29
